Target: T1, human PTH1 receptor (Homo sapiens, UniProt Q03431)
T1 sequence (Q03431 27-593): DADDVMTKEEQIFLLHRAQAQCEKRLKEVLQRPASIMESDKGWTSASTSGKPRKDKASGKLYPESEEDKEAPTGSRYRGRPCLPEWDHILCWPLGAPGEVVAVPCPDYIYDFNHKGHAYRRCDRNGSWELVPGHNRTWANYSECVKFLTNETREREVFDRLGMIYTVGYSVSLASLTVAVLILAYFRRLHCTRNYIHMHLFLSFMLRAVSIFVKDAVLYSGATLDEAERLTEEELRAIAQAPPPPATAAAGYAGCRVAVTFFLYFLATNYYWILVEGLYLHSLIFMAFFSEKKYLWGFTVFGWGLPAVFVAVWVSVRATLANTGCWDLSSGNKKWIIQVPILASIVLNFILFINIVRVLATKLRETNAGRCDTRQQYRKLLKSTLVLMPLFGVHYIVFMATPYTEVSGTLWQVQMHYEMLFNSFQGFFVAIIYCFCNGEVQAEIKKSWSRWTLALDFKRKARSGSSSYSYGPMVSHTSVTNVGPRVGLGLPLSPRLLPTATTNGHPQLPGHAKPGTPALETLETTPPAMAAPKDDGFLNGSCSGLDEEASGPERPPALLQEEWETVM
Assay: In vitro cAMP signal activity in HKRK-B7 cells (LLC-PK1 cells overexpressing the human PTH1 receptor)
Format: cell-based
Conditions: HKRK-B7 cells; compound at 1×10^−3 M; […]; 0.1 µM

Q: For `CNC(=O)Nc1cccc(CCS(=O)(=O)N2CCC3(CC2)N=C(C2CCCCC2)NC3=O)c1C` [Compound 459, 1-{3-[2-(2-Cyclohexyl-4-oxo-1,3,8-triaza-spiro[4.5]dec-1-ene-8-sulfonyl)-ethyl]-2-methyl-phenyl}-3-methyl-urea], which “cAMP production activity (%)” value is on record?
A: 55%

Q: For `COCCOC(=O)N1CCCC(C2=NC3(CCN(S(=O)(=O)c4cccc(Cl)c4)CC3)C(=O)N2)C1` (stereo not drawn) [Compound 460, 3-[8-(3-Chloro-benzenesulfonyl)-4-oxo-1,3,8-triaza-spiro[4.5]dec-1-en-2-yl]-piperidine-1-carboxylic acid 2-methoxy-ethyl ester], which “cAMP production activity (%)” value is on record?
A: 18%

Q: `Cc1cc(N(C)C(=O)OCCN(C)C)ccc1/C=C/S(=O)(=O)N1CCC2(CC1)N=C(c1cccc(OC(F)(F)F)c1)NC2=O` [Compound 466, Methyl-(3-methyl-4-{(E)-2-[4-oxo-2-(3-trifluoromethoxy-phenyl)-1,3,8-triaza-spiro[4.5]dec-1-ene-8-sulfonyl]-vinyl}-phenyl)-carbamic acid 2-dimethylamino-ethyl ester] was tested. Which “cAMP production activity (%)” value did it give?
A: 23%

Q: With `COC(=O)N(C)c1ccc(CCS(=O)(=O)N2CCC3(CC2)N=C(c2cccc(OC(F)(F)F)c2)NC3=O)c(C)c1` [Compound 468, Methyl-(3-methyl-4-{2-[4-oxo-2-(3-trifluoromethoxy-phenyl)-1,3,8-triaza-spiro[4.5]dec-1-ene-8-sulfonyl]-ethyl}-phenyl)-carbamic acid methyl ester] as the molecule, how does the “cAMP production activity (%)” value read?
A: 90%

Q: For `Cc1cc(N(C)C(N)=S)cc(C)c1CCS(=O)(=O)N1CCC2(CC1)N=C([C@H]1CC[C@H](C)CC1)NC2=O` [Compound 474, 1-(3,5-Dimethyl-4-{2-[2-(4-methyl-cyclohexyl)-4-oxo-1,3,8-triaza-spiro[4.5]dec-1-ene-8-sulfonyl]-ethyl}-phenyl)-1-methyl-thiourea], which “cAMP production activity (%)” value is on record?
A: 89%

Q: How did the “cAMP production activity (%)” value turn out when `Cc1cc(N(C)c2nccs2)cc(C)c1CCS(=O)(=O)N1CCC2(CC1)N=C([C@H]1CC[C@H](C)CC1)NC2=O` [Compound 475, 8-{2-[2,6-Dimethyl-4-(methyl-thiazol-2-yl-amino)-phenyl]-ethanesulfonyl}-2-(4-methyl-cyclohexyl)-1,3,8-triaza-spiro[4.5]dec-1-en-4-one] was run?
A: 84%

Same assay, conditions: HKRK-B7 cells; compound at 1×10^−3 M; cAMP produced as percentage of that produced by hPTH(1-34) at 100 nM

Q: With `O=C(OCc1ccccc1)N1CCCC(C2=NC3(CCN(S(=O)(=O)c4cccc(Cl)c4)CC3)C(=O)N2)C1` (stereo not drawn) [Compound 461, 3-[8-(3-chloro-benzenesulfonyl)-4-oxo-1,3,8-triaza-spiro[4.5]dec-1-en-2-yl]-piperidine-1-carboxylic acid benzyl ester] as the molecule, how does the “cAMP production activity (%)” value read?
A: 51%

Q: With `CC(C)COC(=O)N1CCCC(C2=NC3(CCN(S(=O)(=O)c4cccc(Cl)c4)CC3)C(=O)N2)C1` (stereo not drawn) [Compound 462, 3-[8-(3-chloro-benzenesulfonyl)-4-oxo-1,3,8-triaza-spiro[4.5]dec-1-en-2-yl]-piperidine-1-carboxylic acid isobutyl ester] as the molecule, how does the “cAMP production activity (%)” value read?
A: 47%

Q: `COC(=O)N1CCCC(C2=NC3(CCN(S(=O)(=O)c4cccc(Cl)c4)CC3)C(=O)N2)C1` (stereo not drawn) [Compound 463, 3-[8-(3-chloro-benzenesulfonyl)-4-oxo-1,3,8-triaza-spiro[4.5]dec-1-en-2-yl]-piperidine-1-carboxylic acid methyl ester] was tested. Which “cAMP production activity (%)” value did it give?
A: 28%

Q: With `O=C(OCc1ccccc1)N1CCCC(C2=NC3(CCN(S(=O)(=O)CCc4cccc5ccccc45)CC3)C(=O)N2)C1` (stereo not drawn) [Compound 464, 3-[8-(2-naphthalen-1-yl-ethanesulfonyl)-4-oxo-1,3,8-triaza-spiro[4.5]dec-1-en-2-yl]-piperidine-1-carboxylic acid benzyl ester] as the molecule, how does the “cAMP production activity (%)” value read?
A: 54%

Q: How did the “cAMP production activity (%)” value turn out when `CC(C)(C)COC(=O)N1CCCC(C2=NC3(CCN(S(=O)(=O)CCc4cccc5ccccc45)CC3)C(=O)N2)C1` (stereo not drawn) [Compound 465, 3-[8-(2-naphthalen-1-yl-ethanesulfonyl)-4-oxo-1,3,8-triaza-spiro[4.5]dec-1-en-2-yl]-piperidine-1-carboxylic acid 2,2-dimethyl-propyl ester] was run?
A: 66%

Q: `COC(=O)N(C)c1ccc(/C=C/S(=O)(=O)N2CCC3(CC2)N=C(c2cccc(OC(F)(F)F)c2)NC3=O)c(C)c1` [Compound 467, methyl-(3-methyl-4-{(E)-2-[4-oxo-2-(3-trifluoromethoxy-phenyl)-1,3,8-triaza-spiro[4.5]dec-1-ene-8-sulfonyl]-vinyl}-phenyl)-carbamic acid methyl ester] was tested. Which “cAMP production activity (%)” value did it give?
A: 60%

Q: `Cc1ccccc1CCS(=O)(=O)N1CCC2(CC1)N=C(C1CCCCC1)NC2=S` [Compound 469, 2-Cyclohexyl-8-(2-o-tolyl-ethanesulfonyl)-1,3,8-triaza-spiro[4.5]dec-1-ene-4-thione] was tested. Which “cAMP production activity (%)” value did it give?
A: 47%

Q: `Cc1cc(N(C)C(N)=O)cc(C)c1CCS(=O)(=O)N1CCC2(CC1)N=C(C1CCC(C)CC1)NC2=O` (stereo not drawn) [Compound 470, 1-(3,5-Dimethyl-4-{2-[2-(4-methyl-cyclohexyl)-4-oxo-1,3,8-triaza-spiro[4.5]dec-1-ene-8-sulfonyl]-ethyl}-phenyl)-1-methyl-urea] was tested. Which “cAMP production activity (%)” value did it give?
A: 90%

Q: For `Cc1cc(N(C)C(N)=O)cc(C)c1/C=C/S(=O)(=O)N1CCC2(CC1)N=C(C1CCC(C(F)(F)F)CC1)NC2=O` (stereo not drawn) [Compound 471, 1-(3,5-Dimethyl-4-{(E)-2-[4-oxo-2-(4-trifluoromethyl-cyclohexyl)-1,3,8-triaza-spiro[4.5]dec-1-ene-8-sulfonyl]-vinyl}-phenyl)-1-methyl-urea], which “cAMP production activity (%)” value is on record?
A: 111%

Q: Which “cAMP production activity (%)” value does the source give for `Cc1cc(N(C)C(N)=O)cc(C)c1CCS(=O)(=O)N1CCC2(CC1)N=C(C1CCC(C(F)(F)F)CC1)NC2=O` (stereo not drawn) [Compound 472, 1-(3,5-Dimethyl-4-{2-[4-oxo-2-(4-trifluoromethyl-cyclohexyl)-1,3,8-triaza-spiro[4.5]dec-1-ene-8-sulfonyl]-ethyl}-phenyl)-1-methyl-urea] here?
A: 104%

Q: With `COC(=O)Cn1ccc2c(/C=C/S(=O)(=O)N3CCC4(CC3)N=C(C3CCCCC3)NC4=O)cccc21` [Compound 476, {4-[(E)-2-(2-cyclohexyl-4-oxo-1,3,8-triaza-spiro[4.5]dec-1-ene-8-sulfonyl)-vinyl]-indol-1-yl}-acetic acid methyl ester] as the molecule, how does the “cAMP production activity (%)” value read?
A: 61%

Q: With `O=C(N1CCOCC1)n1ccc2c(/C=C/S(=O)(=O)N3CCC4(CC3)N=C(C3CCCCC3)NC4=O)cccc21` [Compound 477, 2-cyclohexyl-8-{(E)-2-[1-(morpholine-4-carbonyl)-1H-indol-4-yl]-ethenesulfonyl}-1,3,8-triaza-spiro[4.5]dec-1-en-4-one] as the molecule, how does the “cAMP production activity (%)” value read?
A: 31%

Q: With `O=C1NC(C2CCCCC2)=NC12CCN(S(=O)(=O)/C=C/c1cccc3c1ccn3CCCCO)CC2` [Compound 478, 2-cyclohexyl-8-{(E)-2-[1-(4-hydroxy-butyl)-1H-indol-4-yl]-ethenesulfonyl}-1,3,8-triaza-spiro[4.5]dec-1-en-4-one] as the molecule, how does the “cAMP production activity (%)” value read?
A: 33%

Q: With `O=C1NC(C2CCCCC2)=NC12CCN(S(=O)(=O)/C=C/c1cccc3cc[nH]c13)CC2` [Compound 479, 2-cyclohexyl-8-[(E)-2-(1H-indol-7-yl)-ethenesulfonyl]-1,3,8-triaza-spiro[4.5]dec-1-en-4-one] as the molecule, how does the “cAMP production activity (%)” value read?
A: 15%

Q: `O=C1NC(C2CCCCC2)=NC12CCN(S(=O)(=O)/C=C/c1cccc3c1ccn3CCC(O)CO)CC2` (stereo not drawn) [Compound 480, 2-cyclohexyl-8-{(E)-2-[1-(3,4-dihydroxy-butyl)-1H-indol-4-yl]-ethenesulfonyl}-1,3,8-triaza-spiro[4.5]dec-1-en-4-one] was tested. Which “cAMP production activity (%)” value did it give?
A: 44%
